System: MSC-EVs
Assay: Dye labelling of MSC-EV preparations analysed by imaging flow cytometry (IFCM)
Protocol: MSC-EVs were prepared form human platelet lysate containing MSC-conditioned media by polyethylene glycol 6000 precipitation followed by ultracentrifugation, as described previously (Borger, V. et al, 2020, Scaled Isolation of Mesenchymal Stem/Stromal Cell-Derived Extracellular Vesicles. Curr Protoc Stem Cell Biol 55, e128; Kordelas et al., 2014, MSC-derived exosomes: a novel tool to treat therapy-refractory graft-versus-host disease. Leukemia 28, 970-973; Ludwig et al., 2018, Precipitation with polyethylene glycol followed by washing and pelleting by ultracentrifugation enriches extracellular vesicles from tissue culture supernatants in small and large scales. J Extracell Vesicles 7, 1528109). Conditioned media were harvested every 48 h. Obtained MSC-EV preparations were diluted in NaCl-HEPES buffer (Sigma-Aldrich, Taufkirchen, Germany) such that 1 mL of final samples contained the preparation yield of the conditioned media of approximately 4.0×10^7 cells.
The staining with CFSE (Thermo Fisher Scientific, Darmstadt, Germany) was based on the manufacturer's protocol. Slight modifications were required to reduce the signal from unbound CFSE. Briefly, the CFSE stock solution was diluted to a working solution of 10 μM CFSE. The solution was centrifuged three times for 10 min at 17,000 × g. Subsequently, 25 μL of MSC-EV preparations, corresponding to the amount of EVs derived from 1×10^6 MSCs, were incubated with the centrifuged CFSE solution for 20 min at 37° C. The sample was diluted 1:20 to a final volume of 1 mL prior to analysis.
The staining of MSC-EV preparations with Calcein AM followed the manufacturer's instructions. Briefly, 25 μL of MSC-EV preparations were incubated with 25 μL of a 20 μM solution of Calcein AM (Thermo Fisher Scientific) for 40 min at 37° C. The sample was diluted 1:20 to a final volume of 1 mL to reduce background noise, avoiding the requirement of a washing step.
The staining of MSC-EV preparations with BODIPY-TR-Ceramide followed the manufacturer's instructions. Briefly, 25 μL of the MSC-EV preparation, corresponding to EVs purified from […], were incubated with 25 μL of a 20 μM solution of BODIPY TR Ceramide (Thermo Fisher Scientific) for 20 min at 37° C. 450 μL of 0.9% NaCl with 10mM HEPES (0.9% NaCl, Melsungen, B. Braun; HEPES, Thermo Fisher Scientific) buffer was added and the EVs were washed by using a Centrifugal Concentrator (Vivaspin 500; Sartorius, Gottingen, Germany). The retentate was adjusted to 500 μL prior to analysis.
The staining of MSC-EV preparations with PKH67 followed the manufacturer's instructions for labeling EVs (Thermo Fisher Scientific). Briefly, using 200 μL of given MSC-EV preparations, corresponding to EVs purified from 8×10^6 cells, the solution was adjusted with Diluent C to a final volume of 1 mL. […]

## Calcein AM [reference compound]
IFCM, with anti-CD9, anti-CD63, anti-CD81 counterstaining where done
  labelling of sEVs in MSC-EV preparations (conclusion): do not Label
Dye + MSC-EVs
  labelled objects in MSC-EV preparations (FIG. 8): failed to label any detectable objects

Reference: US20240093034A1, “FLUORESCENT DYES” (EXOPHARM LIMITED, priority 2020, published 2024)
